The values that follow come from PMC6062138, “2,4-Diaminothieno[3,2-d]pyrimidines, a new class of anthelmintic with activity against adult and egg stages of whipworm” (PLoS Neglected Tropical Diseases, 2018).

Read-outs that look alike come from different tables or passages of the source. Where only a bound is given, the exact number is not on record here.

The subject of series [1] is ex vivo T. muris adults. The settings on record: read-out: EC50 T. muris paralysis assay; cited from earlier work.
The test system of series [2] is T. trichiura. The settings on record: cited from earlier work; for Cure rate, T. trichiura infection: single dose; for Cure rate against whipworm: single doses as used in MDA, no reference given.
The subject of series [3] is C. elegans N2. Also on record: method as in PMID 29223747. The settings on record: read-out: EC50 C. elegans growth assay; cited from earlier work.
Series [4] relates to CMT-93 rectal epithelial cells. As to the kind of experiment: Neutral red cytotoxicity assay. In kind it is cell-based. The settings on record: Mus musculus, CMT93; CMT-93 cells, 72 hours, max 100 μM, n = 8, 95% confidence interval in parentheses. The procedure:
(§1) The mouse rectal epithelial cell line CMT-93 (LGC Promochem, Teddington, United Kingdom) was used for these studies. The WST-8 and neutral red cytotoxicity assays were performed as described. Briefly, cells were cultured with test compounds, chlorpromazine positive control or DMSO alone (final compound concentrations of 0 to 100 μM) for 72 hours. The WST-8 assay was then carried out using the Cell Counting Kit– 8 (Sigma Aldrich # 96992) with an incubation time of 2 hours. This time was chosen according to the manufacturer’s instructions and was such that the absorbance of the WST-8 formazan dye was within the linear range of the microplate reader. Following this assay, the medium was exchanged, and the ability of the cells to take up the dye neutral red (concentration 33 μg/mL, incubation time 2 hours) was determined using a microplate reader (absorbance at 540 nm). Results were analysed using GraphPad Prism and fitted using a log-logistic model.

For series [5], the system named is unembryonated T. muris eggs. As to the kind of experiment: Embryonation assay. Also on record: species or system Trichuris muris. The settings on record: for Percentage of unembryonated eggs compared to the DMSO control: duration of embryonation (56–60 days). The procedure:
One hundred unembryonated eggs were treated with water, 1% v/v DMSO in water or test compounds at a final concentration of 100 μM (unless stated) with 1% v/v DMSO, in the dark at 26°C, either for 56 days or for shorter periods as described. Images were collected on an Olympus BX63 upright microscope using a 60x / 1.42 PlanApo N (Oil) objective and captured and white-balanced using an DP80 camera (Olympus) in monochrome mode through CellSens Dimension v1.16 (Olympus). Images were then processed and analysed using the image analysis platform Fiji.

For series [6], the system named is ex vivo T. muris adults. As to the kind of experiment: T. muris ex vivo adult motility (paralysis) assay. The arrangement: species or system Trichuris muris. Conditions: for EC50: Trichuris muris; for Activity in hit confirmation and expansion motility screen: library material (DMSO solution), 100μM. Here is the method:
T. muris worms were cultured using severe combined immune deficiency (SCID) mice, at the Biological Services Facility at the University of Manchester. Male and female mice were infected with 200 infective embryonated T. muris eggs via oral gavage. Thirty-five days later, the mice were sacrificed. Adult T. muris were obtained from the intestine as previously described. Worms were maintained in Roswell Park Memorial Institute (RPMI) 1640 media supplemented with penicillin (500 U/mL) and streptomycin (500 μg/mL) at approximately 37°C and studied on the same day.
Individual adult worms were added to wells containing 75 μL of RPMI-1640 medium, penicillin (500 U/mL), streptomycin (500 μg/mL) plus 1% v/v final concentration of dimethylsulfoxide (DMSO) or compound dissolved in DMSO. Plates were incubated at 37°C, 5% CO2. Motility was determined after 24 hours.
An automated system was used to quantify worm movement. An earlier version of this system has been previously described. Two hundred frame movies of the whole plate were recorded at 10 frames per second and then motility determined by an algorithm based on thresholding pixel variance over time. For the hit confirmation and expansion assays, library material was used at a final concentration of 100μM. Dose-response curves were calculated with the four factor log-logistic model using the R package drc or using GraphPad Prism.

Series [7] concerns C. elegans N2. The series can be described thus: C. elegans growth assay. The arrangement: species or system Caenorhabditis elegans. The settings on record: synchronised L1, 5 days at 20°C, EC50 estimate ± standard error. The procedure:
A mixed-stage C. elegans N2 population was obtained by liquid culture (20°C) according to standard methods. It was then bleached to obtain an egg population with 1.5 mL 4M NaOH, 2.4 mL NaOCl, 2.1 mL water, washed three times, and allowed to hatch in 50 mL S-basal buffer at 20°C overnight to obtain a synchronised L1 population. For the growth assay, 49 μL of S-complete buffer and 1 μL of DMSO or DMSO plus compound were added to each well of 96-well plates. 50 μL of a worm suspension (approximately 20 synchronised L1 worms, 1% w/v E. coli HB101 in S-complete buffer) were then added to each well. Plates were incubated at 20°C before imaging 5 days later. Worm movement was stimulated by inserting and removing a 96-well PCR plate into/from the wells of the assay plate, and then whole plate 200 frame movies were recorded at 30 frames per second. Growth was quantified as a correlate of movement using the same automated system described earlier, which estimates movement for each well by categorising pixels as imaging movement if their variance is greater the mean plus one standard deviation of the variances of all the pixels on the plate.

Series [8] relates to CMT-93 rectal epithelial cells. The series can be described thus: WST-8 cytotoxicity assay. In kind it is cell-based. Conditions: Mus musculus, CMT93; CMT-93 cells, 72 hours, max 100 μM, n = 8, 95% confidence interval in parentheses. Here is the method:
as §1

Series [9] deals with embryonated T. muris eggs. As to the kind of experiment: In vitro hatching of compound-soaked embryonated eggs in E. coli culture. The arrangement: species or system Trichuris muris. The settings on record: eggs soaked 14 days at 100 μM, then 24 hours in E. coli culture at 37°C. The procedure:
(§2) 100 infective embryonated eggs were incubated in deionised water with 1% v/v DMSO or test compounds at a final concentration of 100 μM in 1% v/v DMSO for 14 days at room temperature in the dark. Eggs were then washed and resuspended in deionised water. For in vitro hatching assays 100 eggs were added to 1 mL of E. coli bacterial culture grown in LB broth overnight at 37°C shaking at 200 rpm. Egg-bacterial cultures were incubated for 24 hours at 37°C, 5% CO2 and hatching determined following blinding by visual examination under a dissecting microscope. For in vivo hatching assays, 40 eggs were counted under a dissecting microscope and given to a SCID mouse in 200 μL water. At day 15 post-infection mice were culled and the number of L2 larvae present in the caecae and colon enumerated in a blinded manner under a dissecting microscope.

Series [10] has as its system embryonated T. muris eggs. The series can be described thus: In vivo hatching and infection establishment of treated eggs in SCID mice. The arrangement: species or system Trichuris muris in SCID mice. Conditions: eggs soaked 14 days in 100 μM; SCID mice given 40 eggs; L2 larvae counted day 15 post infection; batch normalised to DMSO. Here is the method:
as §2
The experiment was conducted in two ‘experimental batches’. For batch one there were 5 mice in each of the DMSO and OX02926 groups. For batch two there were 9 mice in each of the DMSO and OX02926 groups. The raw data (number of worms that established infection in each mouse) are shown separated by batch and treatment in the S1 Fig.
To analyse the data we used a two-way ANOVA (worm number ~ treatment * batch). […] There was no significant interaction between treatment and batch [F(1,24) = 0.296, P = 0.59153]. […]

Details of series [11]: method as in PMID 25370471, PMID 26787751. Conditions: solid tumors; cited from earlier work.
The mark [12] stands for this setting: shown for comparison in Table 1, read-out: Adult Trichuris paralysis assay EC50.

Turning to `CCCSc1ccc2nc(NC(=O)OC)[nH]c2c1` [Albendazole], the EC50 in [1] was > 800 µM. For the same molecule, in series [2], the “Cure rate, T. trichiura infection” value was 28% and the “Cure rate against whipworm” value is given as “less than 40%”.

Regarding `c1ccc([C@H]2CN3CCSC3=N2)cc1` [Levamisole], the EC50 is 8 ± 3 µM in series [1] and 5 ± 1 µM in series [3].

Turning to `COC(=O)Nc1nc2ccc(C(=O)c3ccccc3)cc2[nH]1` [Mebendazole], the EC50 in series [1] was > 600 µM. Moreover, in [3], the EC50 is 1.1 ± 0.2 µM. In addition, in [2], the “Cure rate, T. trichiura infection” value was 36% and the “Cure rate against whipworm” value is “less than 40%”.

For the molecule `CNc1nc(NCCOc2ccccc2)c2sccc2n1` [OX02925, N^2-Methyl-N^4-(2-phenoxyethyl)thieno[3,2-d]pyrimidine-2,4-diamine], the EC50 was 29 µM in [4]; 47 µM in series [6] (setting [12]); 82 ± 9 µM in series [7] (Caenorhabditis elegans, 120 h); 75 µM in series [8]. The “Percentage of unembryonated eggs compared to the DMSO control” value in series [5] (100 μM, 26°C) is on record as “significant increase”. Moreover, the “Activity in hit confirmation and expansion motility screen” value (shortened to “Activity”) in series [6] is recorded as “active”.

`COCCNc1nc(NCCOc2ccccc2Cl)c2sccc2n1` [OX02926, N^4-(2-(2-Chlorophenoxy)ethyl)-N^2-(2-methoxyethyl)thieno[3,2-d]pyrimidine-2,4-diamine] came in with a melting point of 69 to 97 °C. Further, the EC50 in series [4] stood at 21 µM. The EC50 in series [6] (equivalent of 27μM, read-out: EC50 adult whipworm motility assay, mass equivalent) worked out at 10.2 mg/L. Moreover, the EC50 in series [6] (setting [12]) is 27 µM. In addition, in series [6], the “Activity” value is “confirmed this activity”. Also, in series [9], the “In vitro hatching of treated embryonated eggs compared to DMSO control” value is given as “significant decrease”. Moreover, in [10], the “Reduction of the burden of worms in vivo” value is recorded as ~40%. Also, the EC50 in [7] (Caenorhabditis elegans, 120 h) was 82 ± 37 µM. In addition, the EC50 in [7] is 87 ± 37 µM. Moreover, the 50% effective concentration (EC50) in series [8] is 43 µM.

For the molecule `Cc1ccc(CN2C(=O)COCc3cc(-c4ccncc4)ccc32)cc1` [OX02983], in series [1], the EC50 was 50 ± 13 µM.

Take `COc1ccccc1CNc1nc(NCCOc2ccccc2Cl)c2sccc2n1` [OX03143, N^4-(2-(2-chlorophenoxy)ethyl)-N^2-(2-methoxybenzyl)thieno[3,2-d]pyrimidine-2,4-diamine]: the EC50 is 5 µM in [4]; > 80 µM in series [6] (setting [12]); 7 ± 1 µM in [7] (Caenorhabditis elegans, 120 h); 15 µM in series [8]. Also, the “Activity” value in series [6] is reported as “active”.

Turning to `CNc1nc(NCCOc2ccccc2Cl)c2sccc2n1` [OX03147, N^4-(2-(2-chlorophenoxy)ethyl)-N^2-methylthieno[3,2-d]pyrimidine-2,4-diamine], the EC50 in series [4] is 21 µM; in series [6] (setting [12]), 44 µM; in series [7] (Caenorhabditis elegans, 120 h) it was 11 ± 2 µM; in series [8], 37 µM. Also, the “Larval length after shortened exposure” value is recorded as “not affected” in [5] (100 μM, 26°C, 2–4 week and 4–6 week groups); “clear larval stunting” in [5] (100 μM, 26°C, soaking weeks 0–3, P = 0.0076 vs DMSO). In series [5] (100 μM, 26°C), the “Percentage of unembryonated eggs compared to the DMSO control” value is “significant increase”. In series [5] (100 μM, 26°C, weeks 0–2, 0–3, 2–4 or 4–6 of embryonation), the “Proportion of unembryonated eggs after shortened exposure” value is on record as “no increase”. The “Morphology of L1 larvae within the egg after shortened exposure” value in [5] (100 μM, 26°C, weeks 0–3, 2–4 or 4–6) was “clear morphological alterations”. Moreover, the “Drug dose at which increased number of unembryonated eggs was detected” value in series [5] (concentration response, both 26°C and room temperature, 56 days) was 100 µM. Further, the “Effect on egg morphology / larval length at low concentration” value in [5] (concentrations as low as 1 μM, 26°C, 56 days) was “significant larval stunting”. For the same molecule, the “Activity” value in [6] is “active”.

For the molecule `CS(=O)(=O)N1CCN(Cc2cc3nc(-c4cccc5[nH]ncc45)nc(N4CCOCC4)c3s2)CC1` [Pictilisib, pictilisib], in series [11], the “Tolerability in Phase I trials” value is “tolerated”.

As for `Cc1c(CN2CCN(C(=O)[C@H](C)O)CC2)sc2c(N3CCOCC3)nc(-c3cnc(N)nc3)nc12` [apitolisib], in series [11], the “Tolerability in Phase I trials” value is reported as “tolerated”.
